The values below come from patent publication US6989148B2, “Treatment of diabetes” (priority 1994, dated 2006).

The test system of assay [1] is subjects with remission phase Type I diabetes. In words: Sustacal meal with intravenous GLIP infusion 1.2 pm/kg/min (Example 1). The assay is classed as in vivo, human. The method, then: 7 subjects with remission phase Type I diabetes were studied after ingestion of a standardised meal of Sustacal (Upjohn) (delivering […]). Subjects continued their normal insulin treatment programme on the day prior to the test and, on the day of the test, omitted their morning insulin injection and arrived fasting at 8:00 am. […] Infusion was continued for 120 minutes. Blood levels of glucose, C-peptide, gastrin, glucagon and HPP were monitored by standard radioimmunoassay methods in samples taken before and at intervals during the study, up to 180 minutes. On another test day, subjects were given the Sustacal meal alone and the same analytes were similarly monitored.

Assay [2] has as its system Type II diabetics. Particulars: Gutniak et al. (1992), WO93/18786; cited from earlier work.
Assay [3] deals with humans and other mammals. Particulars: Wettergren et al. (1993); cited from earlier work.
The subject of assay [4] is subjects with remission phase Type I diabetes. In words: Intravenous glucose infusion with intravenous GLIP (Example 2). As to conditions: IV GLIP 1.2 pm/kg/min for 60 min along with IV glucose 20 g over 60 min; FIG. 2. The format is in vivo, human. How it is done: Four subjects with remission phase Type I diabetes were studied during intravenous glucose infusion. Subjects prepared for the tests as described in Example 1, but received an intravenous infusion of glucose (20 g over 60 min. constant rate)instead of the Sustacal meal. […] Blood levels of glucose and C-peptide were monitored as in Example 1.

In assay [5] the test system is Type 1 diabetic subject. Put plainly: GLIP along with insulin before Sustacal meal, post-prandial glycaemia (Example 6). Particulars: 50 μg GLIP with 5 units insulin (half the usual dose) subcutaneously before meal; one subject; FIG. 6 Panel A. The assay is classed as in vivo, human.
Description: One Type 1 diabetic subject was given GLIP along with insulin and the effects on post-prandial glycaemia observed. The subject received 5 units of insulin and 50 μg GLIP as subcutaneous injections immediately prior to ingestion of a Sustacal meal as described in Example 1. Blood levels of GLIP were monitored by a standard radioimmunoassay method.
Assay [6] concerns subjects with remission phase Type I diabetes. In words: Sustacal meal with infusion of 0.75 pm/kg/min GLIP versus saline (Example 3). The format is in vivo, human. Particulars: 0.75 pmol/kg/min GLIP along with Sustacal meal, versus saline control; FIG. 3. How it is done: The test was conducted as described in Example 1 and blood glucose and C-peptide levels were measured. On a further test day, the subjects were studied during saline infusion after a similar Sustacal meal.

In assay [7] the test system is Type I diabetic subjects. Put plainly: Sustacal meal preceded by subcutaneous GLIP injection in Type I diabetics (Example 5). The format is in vivo, human. As to conditions: 100 μg GLIP subcutaneously prior to test meal. The text has this: 7 Type I diabetic subjects were studied.
The results are shown in FIG. 5. *indicates statistically significant differences between treatments (p<0.05)

The subject of assay [8] is normal volunteers. In words: Sustacal meal preceded by subcutaneous GLIP injection in normal volunteers (Example 4). The format is in vivo, human. As to conditions: subcutaneous GLIP (100 μg; b67 prints 1.00 μg) before Sustacal meal. The text has this:
Results are shown in FIG. 4. *indicates statistically significant differences between treatments (p<0.05).

Setting [9] is: IV infusion 1.2 pm/kg/min after Sustacal meal.

Entries after “also recorded” stand apart in the source; their conditions may differ.

“Glucagon-like peptide 1(7-36)amide [GLIP]”: in assay [1] (setting [9]), the “blood levels of C-peptide” value is on record as “prevented a significant increase in blood levels of C-peptide” and the “plasma glucagon levels stimulated by the meal” value is listed as “prevented the mean rise in plasma glucagon levels”. The “secretion of pancreatic polypeptide (PP) after meal” value in assay [1] (IV infusion 1.2 pm/kg/min after Sustacal meal, FIG. 1 Panel C) was “this response was absent during GLIP infusion”. For the same substance, the “gastrin levels / gastrin response” value in assay [1] (IV infusion 1.2 pm/kg/min after Sustacal meal, FIG. 1 Panel E) was “normal gastrin response; also recorded: not significantly affected”. Further, the “blood glucose level after a meal” value in assay [1] (IV infusion 1.2 pm/kg/min for 120 min after Sustacal meal, FIG. 1 Panel A) is “excellent control of blood glucose level”. The “effect of combination with oral hypoglycaemic agents” value in assay [2] is “synergistic effect”. For the same substance, the gastric emptying entry in assay [3] was “delay of gastric emptying”. Also, in assay [4], the blood glucose level entry was “improved control of blood glucose level” and the “secretion of endogenous insulin” value was “stimulated secretion of endogenous insulin”. The “blood glucose after Sustacal meal (maximum)” value in assay [5] was at most 8 mM. Further, in assay [6], the “increase in blood glucose” value is “increase in glucose was less than in the control experiment” and the “rise in C-peptide” value is “rise in C-peptide was similar to the control experiment”. In addition, in assay [7] (no morning insulin, FIG. 5 Panel A), the “blood glucose levels compared to control” value is “lowering of blood glucose levels”. In addition, the “pancreatic polypeptide (HPP) levels” value in assay [7] (FIG. 5 Panel D) was “delayed rise in pancreatic polypeptide (HPP) levels”. In addition, the “insulin secretion over control levels” value in assay [7] (FIG. 5 Panels B and C) was “no enhancement of insulin secretion over control levels”. Also, in assay [8], the “increase in blood levels of C-peptide” value is reported as “delay in increase”, the “increase in blood levels of HPP” value is “delay in increase”, the “increase in blood levels of glucose” value is “delay in increase” and the “increase in blood levels of insulin” value was “delay in increase”.
